Results published in patent EP0619297B1, “Fungicides for the control of take-all desease of plants” (MONSANTO COMPANY, priority 1993, dated 1994).
Values after ≈ are worked out from the molar mass of the structure shown.

Legend:
[1] = test system: Gaeumannomyces graminis var. tritici (Ggt); experiment: In vitro assay: mycelial growth on minimal media agar plates (Percent Inhibition; IC50); assay type: cell-based; details: for inhibition at 0.1 ppm: 0.1 ppm in agar, read-out: In vitro(ppm) 0.1, Percent Inhibition; for inhibition at 0.1 ppm / inhibition at 1 ppm / inhibition at 10 ppm: 19 - 20 °C, 4 to 5 days; for inhibition at 1 ppm: 1 ppm in agar, read-out: In vitro(ppm) 1, Percent Inhibition; for inhibition at 10 ppm: 10 ppm in agar, read-out: In vitro(ppm) 10, Percent Inhibition; for IC50: interpolated from percent inhibition at 1, 0.1, 0.01, 0.001 and 0.0001 ppm
Method: The test compounds (0.25 mL of an appropriate stock solution in acetone) are incorporated into 25 mL minimal media agar [prepared by autoclaving a solution of 17.5 g Czapek Dox broth (Difco), 7.5 g purified agar or Bacto-agar (Difco), and 500 mL distilled/deionized water, and then adding 50 µL of 1 mg/mL thiamine hydrochloride and 50 µL of 1 mg/mL biotin in 5% ethanol] and plates are prepared.
Each plate is inoculated by placing in a triangular shape three 4-mm plugs of Gaeumannomyces graminis var. tritici (Ggt) grown on the minimal media agar described above. The plates are incubated in the dark at 19 - 20 °C for 4 to 5 days. The growth of the fungus is measured as the diameter of the mycelial growth. The result is expressed as Percent Inhibition, calculated as [1 - [(mm growth on treated plate - 4)/(mm growth on control plate - 4)]] x 100.
To determine IC5O values, an in vitro assay was run on each compound at the concentrations of 1, 0.1, 0.01, 0.001, and 0.0001 ppm. The percent inhibition was calculated for each concentration using the equation described in the in vitro assay under the section on Biological Assays. Using the two ordered pairs of (concentration, % inhibition) that bracket 50% inhibition of fungal growth, the concentration for 50% inhibition is calculated from the following equation. IC50 = [(50-I2 )C1 + (I1 -50)C2 ]/(I1 -I2 ), [formula] where C1 = 10C2.

[2] = test system: Ggt; experiment: In vivo assay: control of Ggt on wheat in 3-inch pots with infested soil, rated after four weeks;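 for In vivo(ppm) 0.1, percent disease control: rate is mg active ingredient per pot in 3 mL solution not ppm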;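 for In vivo(ppm) 0.5, percent disease control: rate is mg active ingredient per pot in 3 mL solution not ppm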; parameters: species or system Gaeumannomyces graminis var. tritici; details: Gaeumannomyces graminis, 672 h, wheat, soil infested with Ggt, after four weeks; for pest or weed control at 0.02 mg/pot: rate 0.02mg/pot, read-out: In vivo(ppm) 0.02mg/pot, percent disease control; for pest or weed control at 0.1 mg/pot: rate 0.1 (head prints ppm, head line ends mg/pot), read-out: In vivo(ppm) 0.1, percent disease control; for pest or weed control at 0.1 mg/pot / pest or weed control at 0.5 mg/pot: N = no control; for pest or weed control at 0.5 mg/pot: rate 0.5 (head prints ppm, head line ends mg/pot), read-out: In vivo(ppm) 0.5, percent disease control
Method: Compounds are tested for control of Ggt on 'Bergen' or 'Anza' varieties of wheat grown in 3-inch square pots containing soil infested with Ggt. The infestation is accomplished by mixing the soil with an inoculum prepared by growing Ggt on 1/4 strength potato dextrose agar (4.875 g potato dextrose agar, 5.0 g Bacto agar, 500 mL distilled, deionized water) in plates and using plugs from the plates to infest sterile oats (400 cc whole oats, 350 mL deionized water, autoclaved). After a one-month incubation period at room temperature, the oats are dried and mixed with the soil at 4% v/v. Four wheat seeds are placed on top of the soil in each pot. […] Five pots are used for each treatment level and the controls, which are untreated, inoculated and non-inoculated pots. After one hour drying time, the seeds are covered with more of the appropriate soil and a layer of vermiculite. The pots are placed in a growth chamber and watered each day. After four weeks, each pot is evaluated for evidence of disease by examination of the seminal roots of each plant under a dissecting microscope. A 0 to 5 rating scale having the following meanings is used: • 0 = no runner hyphae or lesions present • 1 = runner hyphae and a few small lesions present on <10% of root system • 2 = runner hyphae and small lesions present on 10 - 25% of root system • 3 = runner hyphae and lesions present on 25 - 50% of root system • 4 = runner hyphae and many, large, coalescing lesions on >50% of root system • 5 = root system and culm completely inundated with lesions and runner hyphae
From each set of five replicates a high or low score may be eliminated to assure the best representative scores are used to calculate a replicate mean by averaging the remaining scores. This mean score is then compared to the untreated control score and a percent disease control is calculated.

[3] = test system: Ggt; experiment: In vivo (8 week) seed treatment assay: Large Pot Greenhouse Take-All Assay; parameters: species or system Gaeumannomyces graminis var. tritici; details: wheat, 6-inch pots, roots rated after 7-10 weeks; for % control (rates are g/kg seed) 0.125: seed treatment 0.125 g/kg seed; for % control (rates are g/kg seed) 0.25: seed treatment 0.25 g/kg seed; for % control (rates are g/kg seed) 0.5: seed treatment 0.5 g/kg seed; for % control (rates are g/kg seed) 1 g: seed treatment 1 g/kg seed
Method: An advanced 8-week seed treatment in vivo assay in soil is as follows.
Compounds are tested for control of Ggt on 'Bergen' or 'Anza' varieties of wheat grown in 6-inch round pots containing soil (equal to thirds of Metro-mix, sand, and silt-loam field soil, all steam sterilized). Seeds are treated with a solution of compound of the present invention at 10,000 ppm stock solution in acetone. 20 mg in 2 ml will treat 10 g of seed at each of 4 rates. Using a 10,000 ppm stock for each compound make the following dilutions series:
A treatment jar is rinsed 2 times with 3 ml of actone. Then 1 ml of the solution is swirled to cover the base of the jar. 10 g of seed are added to the jar and capped after which the jar is swirled and shaken until the seeds get a rapid and even coverage. After about 30-50 seconds the lid is removed as the shaking is continued. After 1 minute the jar is set down to dry. When dry, the seed are poured back into the envelope for either planting in the pots or stored until such planting. The method of planting is as follows:
The 6-inch pots are packed to their ledge with the above soil mix.
a) Treated seed is placed on the surface of the soil (packed to ledge) at the rate of 8 seeds per pot with the seeds about 2-3 inches apart. 5 pots (replicates) are planted per treatment. b) 15 ml of oat inoculum (about 4g) are measured and sprinkled evenly over the soil surface of each pot. c) The soil/seed/inoculum is covered with 180 ml of soil mix (same as above). A 150 ml beaker filled to the top edge-is about 180 ml. d) Initially each of the prepared pots is watered lightly several times to wet soil without washing out seeds. e) In cool winter months the prepared pots are left in the greenhouse at 16° - 18°C with only minimal supplemental light. In warmer months the prepared pots are put in a growth chamber set at 17°C for 3-4 weeks to establish disease, then placed in a greenhouse until harvest. The wheat is harvested, washed, and the roots are rated after 7-10 weeks. f) A % of diseased root area is assigned values using 1, 5, 10, 20, 30, 40, 50, 60, 80, or 100 %. Each pot of plants gets a single rating.

SMILES | IC50 [1] [ng/mL] | inhibition at 0.1 ppm [1] [%] | inhibition at 1 ppm [1] [%] | inhibition at 10 ppm [1] [%] | pest or weed control at 0.02 mg/pot [2] [%] | pest or weed control at 0.1 mg/pot [2] [%] | pest or weed control at 0.5 mg/pot [2] [%] | % control (rates are g/kg seed) 0.125 [3] [%] | % control (rates are g/kg seed) 0.25 [3] [%] | % control (rates are g/kg seed) 0.5 [3] [%] | % control (rates are g/kg seed) 1 g [3] [%]
C=CCNC(=O)c1c(OC(C)(CC)CC)ccc2ccccc12 [Example 29, N-allyl 2-[(1,1-diethylethyl)oxy]-1-naphthamide] | 8.14 (≈ 0.0261 µM) | 96 | 96 | 96 | 40 | 57 | 75 | – | 0 | 4 | 4
CCN(CC)C(=O)c1c(OC(C)(CC)CC)ccc2ccccc12 [Example 30, N,N-diethyl 2-[(1,1-diethylethyl)oxy]-1-naphthamide] | 7.43 (≈ 0.0227 µM) | 91 | 96 | 96 | 31 | 43 | 28 | – | 22 | 0 | 13
C=CCNC(=O)c1c(OC(C)(C)CC)ccc2ccccc12 [Example 27, N-allyl 2-[(1,1-dimethylpropyl)oxy]-1-naphthamide] | 8.44 (≈ 0.0284 µM) | 93 | 98 | 98 | 27 | 75 | 95 | 21 | 21 | 0 | 25
CCNC(=O)c1c(OC(C)(C)CC)ccc2ccccc12 [Example 26, N-ethyl 2-[(1,1-dimethylpropyl)oxy]-1-naphthamide] | – | 76 | 95 | 98 | 17 | 56 | 84 | 25 | 25 | 4 | 25

The next lines start with results.

IC50 [1] [ng/mL] | SMILES | inhibition at 0.1 ppm [1] [%] | inhibition at 1 ppm [1] [%] | inhibition at 10 ppm [1] [%] | pest or weed control at 0.02 mg/pot [2] [%] | pest or weed control at 0.1 mg/pot [2] [%] | pest or weed control at 0.5 mg/pot [2] [%] | % control (rates are g/kg seed) 0.125 [3] [%] | % control (rates are g/kg seed) 0.25 [3] [%] | % control (rates are g/kg seed) 0.5 [3] [%] | % control (rates are g/kg seed) 1 g [3] [%]
7.43 (≈ 0.024 µM) | C=CCNC(=O)c1c(OC2(C)CCCC2)ccc2ccccc12 [Example 37, N-allyl 2-[(1-methyl-1-cyclopentyl)oxy]-1-naphthamide] | 93 | 98 | 98 | 28 | 53 | 63 | 4 | 4 | 4 | 4
63.6 (≈ 0.195 µM) | CCCNC(=O)c1c(OC2(C)CCCCC2)ccc2ccccc12 [Example 40, N-propyl 2-[(1-methyl-1-cyclohexyl)oxy]-1-naphthamide] | 74 | 83 | 98 | 3 | 32 | 60 | – | 13 | 13 | 22
6.62 (≈ 0.0202 µM) | CCCNC(=O)c1c(OC(CC)(CC)CC)ccc2ccccc12 [Example 34, N-propyl 2-[(1,1-diethylpropyl)oxy]-1-naphthamide] | 95 | 95 | 95 | 18 | 44 | 49 | – | 17 | 0 | 9
